Patent US20130283404A1, “EPIGENETICS IN AUTOIMMUNITY” (The Regents of the University of Michigan, priority 2012, published 2013)

Experiments:
Format in all cases: cell-based, human
X chromosome MicroRNA = assay: Genome-wide qPCR miRNA expression profiling of 5-azaC treated CD4+ T cells; conditions: 72 hrs; for LET-7f-2 Fold change (5AzaC/No 5Aza): table line 4
Method: (§1) For in vitro demethylation assay, isolated CD4+ cells were cultured with 5 μM 5-AzaC for 72 hours. The cells were then treated (restimulated) or not with 5 ng/ml PMA and 500 ng/ml ionomycin or not for an additional 6 hr, and CD4+ cells were recovered and washed 2 times with PBS. Total RNA including miRNAs was isolated using miRNeasy kit (Qiagen) for miRNA and mRNA expression analysis. Genomic DNA was isolated using Qiagen DNeasy Blood & Tissue Kit. (Hewagama, 2009; Lu, 2007; Quddus, 1993; herein incorporated by reference in their entireties).
Genome-wide qPCR miRNA expression profiling was performed using (System Biosciences (SBI), Cat# RA660A-1) profiler. Briefly, 800 ng totals RNA containing miRNA was converted to complementary DNA with the QuantiMir kit, according to the manufacturer protocol. Real time PCR in 384 well format using miRNA-specific primers was performed using ABI 7900 real-time PCR system at University of Michigan microarray or sequencing core facilities. Resulting data was analyzed by using Human miRNome profiler software provided by SBI.
To identify methylation sensitive […], miRNA expression profiles were compared between 5-AzaC treated CD4+ cells and non-treated controls from healthy men and women. Differentially expressed miRNAs were identified. Then the X chromosome encoded miRNA's increased by 5-azaC in women, compared to men were identified.
Experiments were conducted during the development of embodiments of the present invention to identify X-linked miRNA's increasing more in experimentally demethylated T cells from women than men and also overexpressed in women relative to men with active lupus. The human X chromosome encodes 128 miRNA while the Y chromosome encodes only 15 (Ensembl release 65—December 2011 © WTSI/EBI WTSI/EBI). PBMC from the peripheral blood of healthy men and healthy women ages 23-35 were stimulated with PHA and treated with 5-azaC as before. 72 hrs later CD4+ T cells were purified and miRNA's surveyed using PCR arrays detecting 80 X chromosome and 824 autosomal miRNAs but no Y miRNA's.

OGT [1] = assay: OGT mRNA by RT-PCR in 5-azaC treated CD4+ T cells; conditions: 72 hours, restimulated with PMA and ionomycin, more in women than in men
Method: as §1
(§2) Up to 1000 ng total RNA from CD4+ T cells was transcribed into cDNA using Transcriptor First Strand cDNA synthesis kit (Roche) according to the manufacture's instruction. The cDNA was then subjected to real-time PCR using a Rotor-Gene 3000 thermocycler (Corbett). Roche (Basle) FastStart universal SYBR green master (Roche) mix containing 1 μl template cDNA and 0.5 μM forward and reverse primers in a total volume of 20 μl was annealed at 56° C. for a total of 40 cycles. The fold change of expression was calculated using ACTB and 18sRNA as internal reference genes.
(§3) The sex-specific differences in gene expression were confirmed in experimentally demethylated CD4+ T cells from an additional 9 pairs of healthy men and women. […] CD4+ T cells were then purified using magnetic beads, RNA isolated, and OGT and CXCR3 mRNA levels quantitated by RT-PCR. […]

CXCR3 [2] = assay: CXCR3 mRNA by RT-PCR in 5-azaC treated CD4+ T cells; conditions: 72 hours, restimulated with PMA and ionomycin, more in women than in men
Method: as §1, §2, §3

OGT [3] = assay: OGT protein by immunoblotting in 5-azaC treated CD4+ T cells; conditions: CD4+ T cells from women but not men, 72 h
Method: (§4) CD4 ? T cell CXCR3 levels were measured by flow cytometry using antibodies from Santa Cruz Biotechnology. OGT was measured by solubilizing bead-purified CD4 ? T cells, fractionating the lysates by electrophoresis, transferring the proteins to nitrocellulose membranes, then probing with anti-OGT antibodies (Abcam). CBL protein levels were measured by immunoblotting with anti-CBL antibody (BD Biosciences) and approaches similar to OGT. Protein bands were visualized using an ECL chemiluminescence detection system, then scanned and quantified with ImageQuant 5.2 software. Values were normalized to b-actin and levels expressed relative to non-stimulated CD4 ? T cells. (Basu, 2009; Lu, 2007, Gorelik, 2012; herein incorporated by reference in their entireties).
PBMC from N healthy men and women were stimulated with PHA, treated with 5-azaC, and 72 hours later restimulated with PMA and ionomycin as for an additional 6 hours as before. CD4+ T cells were isolated and OGT levels compared by immunoblotting.

CXCR3 [4] = assay: CXCR3 protein by immunoblotting and flow cytometry on 5-azaC treated CD4+ T cells; conditions: for CXCR3 MFI: mean±SEM
Method: as §4
CXCR3 protein levels were similarly compared on 5-azaC treated CD4+ T cells with and without restimulation using immunoblotting and flow cytometry. In contrast to OGT, using untreated and 5-azaC treated CD4+ T cells from male-female pairs, no increase in CXCR3 protein was observed (CXCR3MFI: female 320+91, male 316+108, mean±SEM) despite the increase in CXCR3 mRNA in the women.

OGT regulatory elements = assay: Methylcytosine affinity purification (MeCAP) of OGT regulatory region in CD4+ T cells; conditions: CD4+ T cells from women but not men
Method: (§5) Genomic DNA from isolated CD4+ T cells (˜3×10^6), was extracted using Qiagen DNeasy Blood & Tissue Kit. 3-5 μg isolated DNA was sonicated to average of ˜500 bp with a Covaris DNA shearing system at UM sequencing core. Fragments were size-evaluated using an Agilent 2100 Bioanalyzer. Approximately 400 ng sonicated DNA was subjected to MeCAP experiments using Active Motif METHYLCOLLECTOR Ultra Kit according to the manufacturer's instructions. DNA fragments from the methylation-enriched fraction were purified using QIAquick PCR Purification Kit (Qiagen). MeCAP enriched and reference input samples were quantitated using quantitative real time PCR(RT-qPCR) with primers designed for specific regions flanking the putative transcription start site of the gene promoters. Differentially methylated regions between patient and normal healthy controls were identified by comparing % enrichment (relative to input) of the 500 bp window of methylated fragments.
(§6) The overexpression of OGT and CXCR3 in 5-azaC treated CD4+ T cells from women relative to men is consistent with demethylation of regulatory regions on their silenced X chromosome. […]

[5] = system: CXCR3 regulatory elements; assay: Methylcytosine affinity purification (MeCAP) of CXCR3 regulatory region in CD4+ T cells; conditions: CD4+ T cells from women
Method: as §5, §6

[6] = system: miR-98/Let 7-f2 gene cluster; assay: Methylation of regulatory regions 5' to the miR-98/Let 7-f2 gene cluster in CD4+ T cells; conditions: T cells from women but not men
Method: as §5
Methylation of potential regulatory regions 5′ to the miR-98/Let 7-f2 gene cluster was compared in experimentally demethylated CD4 ? T cells from women relative to men, and in CD4 ? T cells from women with active lupus.

Nc1ncn([C@@H]2O[C@H](CO)[C@@H](O)[C@H]2O)c(=O)n1 [5-azaC]
MIR-98 Fold change (5AzaC/No 5Aza) (X chromosome MicroRNA; Female CD4+ T cells): 1.7 ± 0.2 | MIR-106a Fold change (5AzaC/No 5Aza) (X chromosome MicroRNA; Female CD4+ T cells): 5.2 ± 1.5 | MIR-188(3p) Fold change (5AzaC/No 5Aza) (X chromosome MicroRNA; Female CD4+ T cells): 12.7 ± 3.0 | MIR-421 Fold change (5AzaC/No 5Aza) (X chromosome MicroRNA; Female CD4+ T cells): 17.4 ± 5.0 | MIR-424 Fold change (5AzaC/No 5Aza) (X chromosome MicroRNA; Female CD4+ T cells): 2.2 ± 0.5 | MIR-450a Fold change (5AzaC/No 5Aza) (X chromosome MicroRNA; Female CD4+ T cells): 2.4 ± 0.7 | MIR-450b Fold change (5AzaC/No 5Aza) (X chromosome MicroRNA; Female CD4+ T cells): 14.3 ± 4.4 | MIR-503 Fold change (5AzaC/No 5Aza) (X chromosome MicroRNA; Female CD4+ T cells): 14.3 ± 4.4 | MIR-508(3p) Fold change (5AzaC/No 5Aza) (X chromosome MicroRNA; Female CD4+ T cells): 4.2 ± 1.1 | LET-7f-2 Fold change (5AzaC/No 5Aza) (X chromosome MicroRNA; Female CD4+ T cells): 3.8 ± 1.2 | MIR-98 Fold change (5AzaC/No 5Aza) (X chromosome MicroRNA; Male CD4+ T cells): 1.4 ± 0.2 | MIR-106a Fold change (5AzaC/No 5Aza) (X chromosome MicroRNA; Male CD4+ T cells): 1.1 ± 0.4 | MIR-188(3p) Fold change (5AzaC/No 5Aza) (X chromosome MicroRNA; Male CD4+ T cells): 4.1 ± 2.1 | MIR-421 Fold change (5AzaC/No 5Aza) (X chromosome MicroRNA; Male CD4+ T cells): 7.8 ± 3.7 | MIR-424 Fold change (5AzaC/No 5Aza) (X chromosome MicroRNA; Male CD4+ T cells): 1.1 ± 0.3 | MIR-450a Fold change (5AzaC/No 5Aza) (X chromosome MicroRNA; Male CD4+ T cells): 1.1 ± 0.8 | MIR-450b Fold change (5AzaC/No 5Aza) (X chromosome MicroRNA; Male CD4+ T cells): 3.8 ± 1.8 | MIR-503 Fold change (5AzaC/No 5Aza) (X chromosome MicroRNA; Male CD4+ T cells): 3.8 ± 1.8 | MIR-508(3p) Fold change (5AzaC/No 5Aza) (X chromosome MicroRNA; Male CD4+ T cells): 1.1 ± 1.3 | LET-7f-2 Fold change (5AzaC/No 5Aza) (X chromosome MicroRNA; Male CD4+ T cells): 0.5 ± 0.2 | OGT transcripts (OGT [1]): increases | CXCR3 transcripts (CXCR3 [2]): increases | OGT protein (OGT [3]): increases | CXCR3 MFI (CXCR3 [4]; female CD4+ T cells): 320+91 | CXCR3 MFI (CXCR3 [4]; male CD4+ T cells): 316+108 | CXCR3 protein (CXCR3 [4]; untreated and 5-azaC treated CD4+ T cells from male-female pairs): no increase | methylation of region −412 to −88 5′ to OGT transcription start site (OGT regulatory elements): significant demethylation | methylation of region −1567 to −1067 5′ to the CXCR3 transcription start site [5]: significant decrease | methylation of regulatory regions 5′ to the miR-98/Let 7-f2 gene cluster [6]: significantly demethylates
